Results: paper PMC6837341, “Evolutionarily conserved susceptibility of the mitochondrial respiratory chain to SDHI pesticides and its consequence on the impact of SDHIs on human cultured cells” (PLoS ONE, 2019)
Where two headings read alike, the source gives them in different places.

Legend:
Format in all cases: biochemical
[1] = target: T1, quinol cytochrome c reductase (CIII) (Apis mellifera, UniProt P34845); experiment: QCCR activity, honeybee crude mitochondria
T1 sequence (P34845 1-383): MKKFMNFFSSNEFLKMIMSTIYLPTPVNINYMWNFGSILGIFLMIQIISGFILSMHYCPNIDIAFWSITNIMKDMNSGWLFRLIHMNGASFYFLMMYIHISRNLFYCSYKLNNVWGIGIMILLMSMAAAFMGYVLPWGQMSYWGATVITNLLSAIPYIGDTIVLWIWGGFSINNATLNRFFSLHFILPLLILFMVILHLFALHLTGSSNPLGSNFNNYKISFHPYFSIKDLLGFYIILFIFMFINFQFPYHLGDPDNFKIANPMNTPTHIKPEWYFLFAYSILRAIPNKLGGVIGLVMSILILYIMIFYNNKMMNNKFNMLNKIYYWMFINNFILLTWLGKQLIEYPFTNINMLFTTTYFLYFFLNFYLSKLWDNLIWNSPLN
Description: (§1) A. mellifera individuals (n = 5) were a kind gift from Jacques Kemp (beekeeper; Saint-Rémy-lès-Chevreuse, Yvelines, France). Whole bodies of individuals frozen in dry ice, except heads, were homogenized using a 1 ml glass-glass Potter-Elvehjem homogenizer in an ice-cold medium consisting of 20 mM Tris (pH 7.2), 0.25 M sucrose, 40 mM KCl, 2 mM EGTA, and 1 mg/ml BSA. The homogenate was centrifuged at 1,500 g for 5 min. The mitochondria contained in the supernatant were spun down at 10,000 g for 10 min. The pellet of crude mitochondria was distributed as 20-μl aliquots and kept frozen at -80°C.
(§2) RC enzyme activities were spectrophotometrically measured using a pseudo-double-wavelength spectrophotometer (Cary 60, Agilent). Malonate-sensitive succinate quinone dichlorophenolindophenol (DCPIP) reductase (SQDR), as an indicator of the activity of the isolated SDH enzyme (isolated CII), and glycerol-3-phosphate quinone DCPIP reductase (GQDR), as a measure of the activity of the isolated glycerol-3-phosphate dehydrogenase (G3PDH), were assayed as previously described. […] With this aim, we measured the malonate-sensitive succinate cytochrome c reductase (SDH+CIII), glycerol-3-phosphate cytochrome c reductase (G3PDH+CIII) and antimycin-sensitive quinol cytochrome c reductase (CIII) as previously described.
(§3) The effects of eight different SDHIs (up to 500 μM; S2 Fig) were determined on four different biological materials. Because IC50 are known to be affected by the actual absolute activity of the tested enzyme, these IC50 were quantified using similar levels of SDH enzyme activity during the assay. IC50 values were determined using the AAT Bioquest IC50 calculator tool (https://www.aatbio.com/tools/ic50-calculator).

[2] = target: succinate cytochrome c reductase (SDH+CIII); experiment: SCCR activity, earthworm homogenate; conditions: Lumbricus terrestris homogenate
Description: L. terrestris individuals (n = 5) were collected manually in a household compost in Epernon (France 28230) and identified by the person (Paule Bénit) in charge of this compost. Before use, the worms were washed 5 times with 1× phosphate-buffered saline. A fresh homogenate was prepared from the segments located between the prostomium and clitellum of the 5 individuals. Tissues were placed in 500 μl of an ice-cold medium consisting of 20 mM Tris (pH 7.2), 0.25 M sucrose, 40 mM KCl, 2 mM EGTA, and 1 mg/ml BSA and homogenized using a 1-ml glass-glass Potter-Elvehjem homogenizer. Low-speed centrifugation at 1,500 g for 5 min allowed heavy debris to be discarded. The supernatant was distributed as 50-μl aliquots and kept frozen at -80°C.
as §2, §3

[3] = target: T2, succinate cytochrome c reductase (SDH+CIII) (Apis mellifera, UniProt A0A8U0WTA3+A0A8U0YBJ8+A0A8U1DE73); experiment: SCCR activity, honeybee crude mitochondria
T2 sequence (A0A8U1DE73 27-278): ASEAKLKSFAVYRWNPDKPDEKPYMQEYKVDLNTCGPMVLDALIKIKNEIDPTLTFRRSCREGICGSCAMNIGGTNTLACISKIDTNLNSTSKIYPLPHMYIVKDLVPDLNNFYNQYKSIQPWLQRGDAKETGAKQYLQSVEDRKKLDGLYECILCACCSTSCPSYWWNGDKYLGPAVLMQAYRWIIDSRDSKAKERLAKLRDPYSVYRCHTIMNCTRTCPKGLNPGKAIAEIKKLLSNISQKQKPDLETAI
T2 sequence (A0A8U0YBJ8 36-174): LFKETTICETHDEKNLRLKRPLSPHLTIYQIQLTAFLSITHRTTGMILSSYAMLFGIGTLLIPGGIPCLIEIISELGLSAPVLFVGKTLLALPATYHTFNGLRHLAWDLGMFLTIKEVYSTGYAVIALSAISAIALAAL
T2 sequence (A0A8U0WTA3 79-201): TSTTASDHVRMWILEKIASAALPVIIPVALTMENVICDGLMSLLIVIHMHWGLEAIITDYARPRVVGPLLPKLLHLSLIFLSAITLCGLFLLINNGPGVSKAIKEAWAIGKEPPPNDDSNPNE
Description: as §1, §2, §3

[4] = target: T3, glycerol-3-phosphate cytochrome c reductase (G3PDH+CIII) (Apis mellifera, UniProt P34845); experiment: GCCR activity, honeybee crude mitochondria
T3 sequence (P34845 1-383): T1 sequence (P34845 1-383)
Description: as §1, §2, §3

[5] = read-out: IC50 QCCR, CIII values only indicative
[6] = CIII values only indicative, read-out: IC50 QCCR

| Structure (SMILES) | IC50 [1, 5] | IC50 [2] | IC50 [1, 6] | IC50 [3] | IC50 [4] |
| --- | --- | --- | --- | --- | --- |
| CC(C)CC(C)c1sccc1NC(=O)c1cn(C)nc1C(F)(F)F (stereo not shown) [Penthiopyrad, penthiopyrad] | 268 µM | 0.7 µM | – | – | – |
| CC(C)Oc1cccc(NC(=O)c2ccccc2C(F)(F)F)c1 [Flutolanil, flutolanil] | > 500 µM | 0.36 µM | – | – | – |
| Cn1cc(C(=O)Nc2ccc(F)cc2-c2ccc(Cl)c(Cl)c2)c(C(F)F)n1 [Bixafen, bixafen] | – | 6 µM | 5.7 µM | 3.3 µM | 24.1 µM |
| O=C(Nc1ccccc1-c1ccc(Cl)cc1)c1cccnc1Cl [Boscalid, boscalid] | > 500 µM | 0.5 µM | – | – | – |
| CC(C)C1C2CCC1c1c(NC(=O)c3cn(C)nc3C(F)F)cccc12 (stereo not shown) [Isopyrazam, isopyrazam] | – | 0.46 µM | 87 µM | 5.1 µM | 97 µM |
| Cn1cc(C(=O)Nc2ccccc2-c2cc(F)c(F)c(F)c2)c(C(F)F)n1 [Fluxapyroxad, fluxapyroxad] | – | 0.71 µM | 300 µM | 11.7 µM | 205 µM |
| Cc1nn(C)c(F)c1C(=O)Nc1ccccc1C(C)CC(C)C (stereo not shown) [Penflufen, penflufen] | – | 1.13 µM | > 500 µM | 7.5 µM | > 500 µM |
